*: point of attachment. CH2F = FC*
What was measured:
[1] = system: A498 cells (proteolytic activity); assay: Cell proteolytic activity towards Ac-PLVQ-AMC, A498; type: cell-based, human; conditions: 30 min peptide, then 10 min Ac-PLVQ-AMC; fluorescence microscopy and fluorimetric analysis
Method: (§1) To evaluate the inhibitory properties of the peptides directly on the human renal cancer cells, we firstly assessed the impact of Ac-PLVE-FMK and Ac-VLPE-FMK on the cell viability of 769-P and A498 cells to determine the working concentrations for further experiments. […] Further experiments were performed using a concentration of 20 μM. To understand if the peptides could affect the activity of caspase proteases, we tested their effect on cell viability in combination with the chemotherapeutic paclitaxel (PXT) in both the cell lines. […] Next, we evaluated the effect of the peptides on renal cancer cell proteolytic activity against the fluorogenic probe Ac-PLVQ-AMC. In this case, 769-p and A498 cells were treated for 30 min with Ac-PLVE-FMK or Ac-VLPE-FMK and were then exposed for 10 min to the substrate Ac-PLVQ-AMC prior fluorescence microscopy analysis (Figure 3c,d).
Figure 3 The effect of the peptide inhibitors on human 769-P and A498 renal cancer cell proliferation and proteolytic activity. […] Cell proliferation was measured after 24, 48, and 72 h via MTT (3-(4,5-dimethylthiazol-2-yl)-2,5-diphenyltetrazolium bromide) assay. […] (c) Fluorescence microscopy evaluation and quantification of the cell proteolytic activity in 769-P and (d) A498 cells towards the fluorogenic substrate Ac-PLVQ-AMC in the absence or presence of Ac-PLVE-FMK and Ac-VLPE-FMK. […]

[2] = system: A498 cells (endolysosomal compartment); assay: Neutral red assay (endolysosomal integrity), A498; type: cell-based, human; conditions: 2.5–250 μM; 48 h
Method: Figure S6. The effect of the peptide inhibitors on human 769‐P and A498 renal cancer cell on
lysosomes integrity. (a) 769‐P and (b) A498 cells were treated with increasing doses of Ac‐PLVE‐FMK
(red bars) and Ac‐VLPE‐FMK (blue bars) (2.5–250 μM). NR uptake was measured after 24, 48, and 72
h via MTT assay. (c) LysoTracker red evaluation in 769‐P and (d) A498 cells after 24, 48, and 72 h with
the inhibitors (20 μM). Data represent the mean (± S.D.) of at least three independent experiments,
each performed in triplicate.

[3] = system: human recombinant CtsB; assay: Fluorescent protease activity assay, recombinant CtsB; type: biochemical; conditions: 20 nM CtsB, 50 μM Ac-PLVQ-AMC, inhibitor 2 μM; 0.1 M sodium acetic buffer pH 4.6, 12 min, Ex/Em 353/442 nm
Method: Ac-PLVE-FMK and Ac-VLPE-FMK inhibitory properties were evaluated against human recombinant CtsL and B. These recombinant enzymes were expressed in E. coli via plasmid transformation and further purification, using nickel-nitrilotriacetic acid (Ni-NTA) sepharose. Gel zymography assay was used to provide a preliminary evaluation of the ability of these recombinant proteins to degrade the gelatin substrate previously embedded in the gel (Supplementary Figure S1). Following Coomassie staining, the Cts were detectable as single bands. As expected, a translucent area was evident, due to the substrate digestion in the proximity of the proteins. Then, the recombinant proteins were tested for their ability to digest the Triticain-α substrate Ac-PLVQ via fluorescent protease activity assay, previously optimized by our group. This probe was conjugated with the fluorogenic chromophore 7-amino-4-methylcoumarin (Ac-PLVQ-AMC). After proteolytic cleavage, it emits a detectable fluorescent signal.
Total RNA extract from retinoblastoma […] cells was used to obtain cDNA. A pair of oligonucleotides ([…] and […]) was used for the amplification of DNA fragment containing CtsB, the product of which was ligated into pET15b (Merck Millipore, Billerica, MA, USA) using NdeI and XhoI. DNA fragment containing CtsL was amplified using a pair of oligonucleotides ([…] and […]) and ligated into pET28a (+) (Merck Millipore, Billerica, MA, USA) using NheI and HindIII. […]
The activity of recombinant CtsL and B was detected by the hydrolysis of the fluorogenic substrate Ac-Pro-Leu-Val-Gln- 7-amino-4-methylcoumarin (AMC) (Pepmic Suzhou Jiangsu, China). […] The substrate was added to a final concentration of 50 μM, and its hydrolysis was continuously measured for 12 min using a CLARIOstar® Plus plate reader (BMG Labtech Ortenberg Baden-Württemberg, Germany) at excitation and emission wavelengths of 353 and 442 nm, respectively.

[4] = system: 769-P cells; assay: Cell viability with paclitaxel (MTT), 769-P; type: cell-based, human; conditions: peptide 20 µM combined with PXT 100 nM; versus PXT alone
Method: as §1
The cell number was evaluated by counting viable cells using the MTT (3-(4,5-dimethylthiazol-2-yl)-2,5-diphenyltetrazolium bromide) colorimetric assay. A total of 2 × 10^4 cells/well were seeded on independent 96-well plates for each time point (0, 24, 48, and 72 h), with five replicates and treated with two inhibitors (2.5–250 μM). Then, 10 µL of the MTT reagent was added to each well, and cells were incubated for another 5 h. Next, the absorbance value was measured using a CLARIOstar® Plus plate reader (BMG Labtech, Ortenberg, Germany) at 490 nm. Triplicate wells were assayed, and S.D.s were determined.
Figure S3. Combined effect of PXT and the inhibitors on 769‐P proliferation: 769‐P cells were treated with 100 nM of PXT alone or in combination with 20 μM of Ac‐PLVE and Ac‐VLPE and cell proliferation was measured after 24, 48, and 72 h via MTT assay. Data represent the mean (± S.D.) of three independent experiments, each performed in triplicate.
Figure S4. Spheroids size and circularity: (a,b) size and circularity of 769‐P and (c,d) A498 cells upon treatment with Ac‐PLVE‐FMK and Ac‐VLPE‐FMK. Data represent the mean (± S.D.) of three independent experiments, each performed in triplicate. […]

Substance	Inhibition of probe degradation (cell proteolytic activity) [1]	Neutral red uptake [2]	Inhibition of Ac-PLVQ-AMC cleavage (fluorescent signal) [3]	Effect on cell viability in combination with PXT [4]
Ac-PLVE-CH2F [Ac-PLVE-FMK]	significantly inhibited the probe degradation	decreasing	the intensity of the fluorescent signal was significantly affected	no significant differences were observed
Ac-VLPE-CH2F [Ac-VLPE-FMK]	significantly inhibited the probe degradation	decreasing	the intensity of the fluorescent signal was significantly affected	no significant differences were observed

From paper PMC7281206, “Cysteine Cathepsins Inhibition Affects Their Expression and Human Renal Cancer Cell Phenotype” (Cancers, 2020)
